# Laboratory results published in the supplement of paper PMC10307832.
# Experiments:
# Assay in all cases: relative viability (nuclei count vs DMSO), 5 days (fraction); higher = more cells survive
# [1] = compound: CC(=O)Nc1cccc(-n2c(=O)n(C3CC3)c(=O)c3c(Nc4ccc(I)cc4F)n(C)c(=O)c(C)c32)c1 [Trametinib] + CCNC(=O)c1noc(-c2cc(C(C)C)c(O)cc2O)c1-c1ccc(CN2CCOCC2)cc1 [Luminespib] (partner 0.01 µM)
# How it was run: (§1)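 Each reported value is a median over duplicate plates. It expresses relative viability: treated-well nuclei count divided by vehicle-well nuclei count. Lung cancer cell lines in 1536-well plates were dosed by pin tool a day after seeding, alone with one drug or with a fixed anchor-drug dose plus five library-drug doses (not always all listed) in √10 steps, and nuclei were counted after 5 days.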
# [2] = compound: CN1C=C(C2=CC=CC=C21)/C=C\3/C4=C(C=CC=N4)NC3=O + CC(=O)c1c(C)c2cnc(Nc3ccc(N4CCNCC4)cn3)nc2n(C2CCCC2)c1=O [Palbociclib] (partner 0.5 µM)
# How it was run: as §1
# [3] = compound: CN1C=C(C2=CC=CC=C21)/C=C\3/C4=C(C=CC=N4)NC3=O + NC(=O)Nc1cc(-c2cccc(F)c2)sc1C(=O)N[C@H]1CCCNC1 [AZD7762] (partner 0.2 µM)
# How it was run: as §1
# [4] = compound: CN1C=C(C2=CC=CC=C21)/C=C\3/C4=C(C=CC=N4)NC3=O + O=C(CCCCCCC(=O)Nc1ccccc1)NO [Vorinostat] (partner 1 µM)
# How it was run: as §1
Cell Line,relative viability ([1]; first compound 0.0025 µM),relative viability ([1]; first compound 0.007906 µM),relative viability ([1]; first compound 0.025 µM),relative viability ([1]; first compound 0.07906 µM),relative viability ([1]; first compound 0.25 µM),relative viability ([2]; first compound 0.02 µM),relative viability ([2]; first compound 0.06325 µM),relative viability ([2]; first compound 0.2 µM),relative viability ([2]; first compound 0.6325 µM),relative viability ([2]; first compound 2 µM),relative viability ([3]; first compound 0.02 µM),relative viability ([3]; first compound 0.06325 µM),relative viability ([3]; first compound 0.2 µM),relative viability ([3]; first compound 0.6325 µM),relative viability ([3]; first compound 2 µM),relative viability ([4]; first compound 0.02 µM),relative viability ([4]; first compound 0.06325 µM),relative viability ([4]; first compound 0.2 µM),relative viability ([4]; first compound 0.6325 µM),relative viability ([4]; first compound 2 µM)
NCI-H1355,0.486,0.605,0.323,0.35,0.3,0.303,0.369,0.387,0.476,0.517,0.715,0.708,0.637,0.606,0.642,0.581,0.581,0.653,0.513,0.534
NCI-H727,0.297,0.314,0.291,0.244,0.225,0.63,0.575,0.653,0.652,0.623,0.575,0.563,0.405,0.591,0.511,1.02,1.21,0.903,1.23,1.35
NCI-H1975,0.207,0.177,0.155,0.183,0.171,0.623,0.361,0.45,0.442,0.504,0.893,0.811,0.62,0.602,0.542,0.775,0.745,0.708,0.725,0.668
NCI-H460,0.0314,0.0296,0.0277,0.0263,0.0269,0.209,0.153,0.0627,0.103,0.157,0.627,0.576,0.263,0.677,0.574,0.958,0.655,0.685,0.37,0.545
EPLC-272H,0.222,0.22,0.251,0.129,0.117,0.331,0.271,–,0.336,0.274,0.321,0.244,–,0.132,0.174,0.486,0.379,0.465,–,0.404
SW 900,0.189,0.167,0.15,0.169,0.17,0.428,–,–,0.542,0.563,0.512,–,–,0.555,0.591,0.588,–,–,0.352,0.463
NCI-H322M,0.749,0.634,0.471,0.473,0.404,0.451,0.458,0.487,0.498,0.5,0.58,0.488,0.509,0.592,0.617,0.855,0.821,0.712,0.904,0.828
NCI-H2405,0.529,0.591,0.395,0.338,0.306,0.576,0.526,0.524,0.535,0.541,0.857,0.731,0.552,0.835,0.795,1.16,0.913,0.754,0.98,0.73
NCI-H1666,0.95,0.912,0.717,0.72,0.573,0.604,0.62,0.634,0.574,0.632,0.896,0.79,0.826,0.742,0.871,0.902,0.909,1.06,0.926,0.991
NCI-H358,0.264,0.18,0.132,0.107,0.11,0.147,0.152,0.123,0.13,0.138,0.531,0.494,0.338,0.488,0.548,0.764,0.535,0.672,1.21,0.51
H3255,1.07,0.928,0.581,0.601,0.236,0.33,0.327,0.309,0.317,0.296,1.02,0.86,0.848,0.954,0.844,1.03,–,0.876,0.749,0.774
LCLC-103H,0.769,0.761,0.735,0.767,0.668,0.493,0.411,0.479,0.471,0.472,0.864,0.758,0.73,0.741,0.786,0.819,0.755,0.749,0.853,0.766
NCI-H2347,0.513,0.254,0.205,0.208,0.303,0.418,0.41,0.398,0.395,0.416,0.778,0.728,0.56,0.79,0.83,0.585,0.659,0.582,0.493,0.517
LK-2,0.159,0.183,0.223,0.161,0.191,0.232,0.421,0.447,0.576,0.678,0.173,0.278,0.162,0.32,0.271,–,0.263,0.199,0.231,0.315
NCI-H2342,0.728,0.582,–,0.587,0.604,0.552,0.557,0.519,0.537,0.485,0.434,0.459,0.393,0.42,0.406,0.661,0.787,0.788,0.613,0.684
HCC-15,0.313,0.186,0.157,0.165,0.192,0.708,0.733,0.724,0.685,0.746,1.11,1.13,1.37,1.22,1.31,0.915,0.824,0.867,0.74,0.706
NCI-H838,0.289,0.291,0.247,0.204,0.208,0.208,0.174,0.214,0.199,0.18,0.81,0.753,0.789,0.871,0.632,0.679,0.653,0.591,0.601,0.55

Cell Line,relative viability ([1]; first compound 0.0025 µM),relative viability ([1]; first compound 0.007906 µM),relative viability ([1]; first compound 0.025 µM),relative viability ([1]; first compound 0.07906 µM),relative viability ([1]; first compound 0.25 µM),relative viability ([2]; first compound 0.02 µM),relative viability ([2]; first compound 0.06325 µM),relative viability ([2]; first compound 0.2 µM),relative viability ([2]; first compound 0.6325 µM),relative viability ([2]; first compound 2 µM),relative viability ([3]; first compound 0.02 µM),relative viability ([3]; first compound 0.06325 µM),relative viability ([3]; first compound 0.2 µM),relative viability ([3]; first compound 0.6325 µM),relative viability ([3]; first compound 2 µM),relative viability ([4]; first compound 0.02 µM),relative viability ([4]; first compound 0.06325 µM),relative viability ([4]; first compound 0.2 µM),relative viability ([4]; first compound 0.6325 µM),relative viability ([4]; first compound 2 µM)
RERF-LC-KJ,1.21,1.19,1.14,1.09,0.736,0.937,1.07,0.988,0.963,1.12,1.03,0.96,0.805,1.01,0.928,0.787,0.668,0.72,0.604,0.598
ChaGo-K-1,0.729,0.515,0.511,0.646,0.464,0.922,0.936,0.853,0.89,0.909,0.703,0.868,0.723,0.848,0.877,0.71,0.772,0.627,0.759,0.769
NCI-H441,0.331,0.264,0.362,0.285,0.327,0.199,0.163,0.189,0.194,0.193,1.15,1.21,1.19,1.06,1.05,0.807,0.752,0.833,0.694,0.793
NCI-H2170,0.58,0.749,0.399,0.559,0.431,0.293,0.408,0.349,0.392,0.434,0.86,0.811,0.581,0.825,0.761,0.746,0.762,0.747,0.614,0.758
PC-14,0.125,0.147,0.127,0.152,0.147,0.539,0.536,0.55,0.617,0.545,0.254,0.307,0.19,0.306,0.264,0.759,0.583,0.728,0.674,0.744
NCI-H1395,0.616,0.703,0.691,0.775,0.403,0.567,0.534,0.581,0.618,0.581,0.385,0.374,0.364,0.407,0.403,0.679,0.725,0.564,0.662,0.604
NCI-H1437,1.12,0.923,0.709,0.627,0.602,0.344,0.34,0.292,0.32,0.318,1.23,1.2,1.1,1.17,1.26,0.955,0.823,0.857,0.804,0.71
NCI-H647,0.183,0.12,0.324,0.209,0.102,0.367,0.354,0.292,0.37,0.348,0.348,0.418,0.0952,0.304,0.378,0.498,0.529,0.676,0.524,0.531
NCI-H1793,0.304,0.159,0.142,0.173,0.17,0.322,0.39,0.285,0.275,0.296,0.431,0.595,0.316,0.387,0.443,0.774,0.733,0.522,0.681,0.704
NCI-H2087,0.17,0.137,0.137,0.141,0.148,0.243,0.178,0.229,0.199,0.237,1.41,1.33,1.31,1.22,1.37,0.73,0.603,0.551,0.753,0.838
BEN,0.269,0.374,0.154,0.379,0.377,0.453,0.409,0.465,0.48,0.49,0.771,0.742,0.485,0.622,0.728,0.547,0.541,0.571,0.636,0.574
NCI-H3122,0.103,0.0926,0.0926,0.0939,0.0775,0.137,0.181,0.202,0.183,0.235,0.85,0.953,0.845,1.04,1.07,0.767,1.06,0.734,1.02,1
LCLC-97TM1,0.802,0.493,0.291,0.226,0.234,–,0.156,0.201,0.203,0.261,0.177,0.188,0.0774,0.168,0.284,–,0.621,0.467,0.766,0.77
EMC-BAC-2,1.18,1.04,1.04,0.95,0.684,0.471,0.513,0.504,0.521,0.535,0.963,0.963,0.91,1.03,1,0.849,0.441,0.39,0.261,0.214
NCI-H1944,0.624,0.489,0.429,0.377,0.22,0.28,0.351,–,0.267,0.314,0.442,0.471,–,0.464,0.469,0.471,0.5,–,0.568,0.528
A-427,0.805,0.871,0.691,0.661,0.297,0.577,0.492,–,0.514,0.572,0.782,0.753,–,0.729,0.802,0.89,0.845,–,0.901,0.813
